# Legend:
# [1] = Half life of the compound in DMSO; assay type: physicochemical
# [2] = biological target: T1, Bromodomain-containing protein 4 (Homo sapiens, UniProt O60885); test: Binding affinity to BRD4 bromodomain 1 in human Ramos cells; assay type: cell-based
# [3] = Antiproliferative activity against human Burkitts lymphoma cells; assay type: functional; conditions: Burkitts lymphoma cell
# [4] = system: NAMALVA; test: Antiproliferative activity against human NAMALVA cells; assay type: functional
# [5] = biological target: T2, Caspase-3/Caspase-7 (Homo sapiens, UniProt P42574+P55210); test: Activation of caspase 3/7 in human 22Rv1 cells by Caspase-Glo reagent based analysis; assay type: cell-based
# T2 sequence (P42574 whole entry): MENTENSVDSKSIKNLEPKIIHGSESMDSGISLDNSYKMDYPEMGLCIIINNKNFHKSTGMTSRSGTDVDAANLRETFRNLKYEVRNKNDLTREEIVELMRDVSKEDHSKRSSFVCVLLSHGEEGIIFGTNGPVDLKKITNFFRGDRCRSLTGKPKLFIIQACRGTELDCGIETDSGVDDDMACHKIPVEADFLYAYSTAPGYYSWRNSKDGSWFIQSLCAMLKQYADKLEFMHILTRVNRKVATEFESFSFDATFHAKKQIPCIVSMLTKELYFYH
# T2 sequence (P55210 whole entry): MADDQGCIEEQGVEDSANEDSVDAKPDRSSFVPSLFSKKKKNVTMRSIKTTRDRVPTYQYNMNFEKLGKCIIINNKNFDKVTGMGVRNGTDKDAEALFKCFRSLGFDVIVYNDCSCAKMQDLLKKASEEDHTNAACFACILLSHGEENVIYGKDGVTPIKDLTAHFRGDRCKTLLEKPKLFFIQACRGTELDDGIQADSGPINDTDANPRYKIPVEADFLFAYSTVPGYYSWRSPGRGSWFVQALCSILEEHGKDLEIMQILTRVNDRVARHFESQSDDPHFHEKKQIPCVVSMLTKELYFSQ
# [6] = biological target: T1, Bromodomain-containing protein 4; test: Induction of BRD4 degradation in human HEK293T cells; assay type: cell-based
# [7] = biological target: T1, Bromodomain-containing protein 4; test: Induction of BRD4 degradation in human HEK293T cells at 10 uM measured at 6 hrs relative to control; assay type: cell-based
# [8] = system: BXPC-3; test: Antiproliferative activity against human BXPC-3 cells assessed as inhibition of cell growth incubated for 72 hrs by MTT assay; assay type: functional, cell-based; conditions: BXPC-3, 72 h
# [9] = biological target: T3, Bromodomain-containing protein 2 (Homo sapiens, UniProt P25440); test: Induction of BRD2 degradation in human 22Rv cells incubated for 16 hrs by Western blot analysis; assay type: cell-based; conditions: 22rv1
# T3 sequence (P25440 whole entry): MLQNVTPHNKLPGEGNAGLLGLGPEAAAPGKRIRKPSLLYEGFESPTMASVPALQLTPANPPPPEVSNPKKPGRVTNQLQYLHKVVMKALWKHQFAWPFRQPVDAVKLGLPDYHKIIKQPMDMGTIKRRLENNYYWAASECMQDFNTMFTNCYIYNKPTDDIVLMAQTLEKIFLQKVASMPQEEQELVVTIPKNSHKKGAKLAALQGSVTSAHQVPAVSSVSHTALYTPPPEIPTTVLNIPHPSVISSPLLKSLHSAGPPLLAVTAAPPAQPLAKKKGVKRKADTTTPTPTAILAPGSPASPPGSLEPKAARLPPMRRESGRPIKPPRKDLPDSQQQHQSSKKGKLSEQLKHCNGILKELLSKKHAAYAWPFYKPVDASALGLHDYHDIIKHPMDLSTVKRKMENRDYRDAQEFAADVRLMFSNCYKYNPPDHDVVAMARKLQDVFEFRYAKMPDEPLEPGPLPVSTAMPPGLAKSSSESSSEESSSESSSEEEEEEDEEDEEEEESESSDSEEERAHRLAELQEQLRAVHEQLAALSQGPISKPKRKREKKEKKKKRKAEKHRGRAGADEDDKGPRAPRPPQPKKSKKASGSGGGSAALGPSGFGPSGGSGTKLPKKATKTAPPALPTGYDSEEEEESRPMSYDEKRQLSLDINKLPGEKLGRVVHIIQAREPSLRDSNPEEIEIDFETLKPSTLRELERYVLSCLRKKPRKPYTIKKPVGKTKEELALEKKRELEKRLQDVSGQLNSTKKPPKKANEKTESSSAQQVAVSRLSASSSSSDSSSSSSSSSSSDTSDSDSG
# [10] = biological target: T3, Bromodomain-containing protein 2; test: Induction of BRD2 degradation in human VCaP cells incubated for 16 hrs by Western blot analysis; assay type: cell-based
# [11] = biological target: T3, Bromodomain-containing protein 2; test: Induction of BRD2 degradation in human LNCaP-95 cells incubated for 16 hrs by Western blot analysis; assay type: cell-based
# [12] = biological target: von Hippel-Lindau disease tumor suppressor/Bromodomain-containing protein 2 (Homo sapiens, UniProt P25440+P40337); test: Protac activity at BRD2/VHL-bound E3 ligase in human 22Rv1 cells assessed as reduction c-Myc level incubated for 24 hrs by Western blot analysis; assay type: cell-based
# Sequence of von Hippel-Lindau disease tumor suppressor/Bromodomain-containing protein 2 (P25440 whole entry): as above
# Sequence of von Hippel-Lindau disease tumor suppressor/Bromodomain-containing protein 2 (P40337 whole entry): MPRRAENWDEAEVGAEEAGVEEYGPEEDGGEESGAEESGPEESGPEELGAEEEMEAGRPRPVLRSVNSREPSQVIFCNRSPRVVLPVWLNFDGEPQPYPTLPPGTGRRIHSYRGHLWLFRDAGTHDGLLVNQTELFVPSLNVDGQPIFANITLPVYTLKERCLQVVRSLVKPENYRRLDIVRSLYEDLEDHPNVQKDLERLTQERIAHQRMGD
# [13] = system: EOL1; test: Antiproliferative activity against human EOL1 cells assessed as inhibition of cell growth; assay type: functional, cell-based
# [14] = system: HL-60; test: Antiproliferative activity against human HL-60 cells assessed as inhibition of cell growth; assay type: functional, cell-based
# [15] = system: RS4-11; test: Antiproliferative activity against human RS4-11 cells assessed as reduction in cell viability incubated for 72 hrs under light irradiation; assay type: functional, cell-based; conditions: RS4-11, light or radiation study
# [16] = system: RS4-11; test: Antiproliferative activity against human RS4-11 cells assessed as reduction in cell viability incubated for 72 hrs under dark condition; assay type: functional, cell-based; conditions: RS4-11, 72 h
# [17] = biological target: T1, Bromodomain-containing protein 4; test: Induction of BRD4 degradation in human 231MFP cells; assay type: cell-based
# [18] = biological target: T1, Bromodomain-containing protein 4; test: Induction of degradation of BRD4 (unknown origin)
# [19] = system: MM1.S; test: Antiproliferative activity against human MM1.S cells assessed as inhibition of cell growth; assay type: functional, cell-based
# [20] = system: MV4-11; test: Antiproliferative activity against human MV4-11 cells assessed as inhibition of cell growth; assay type: functional, cell-based
# [21] = system: MDA-MB-468; test: Antiproliferative activity against human MDA-MB-468 cells assessed as inhibition of cell growth; assay type: functional, cell-based
smiles,measurement,setting,value
COc1cc(/N=N\c2cccc3c2CN(C2CCC(=O)NC2=O)C3=O)cc(OC)c1OCC(=O)NCCCCNC(=O)C[C@@H]1N=C(c2ccc(Cl)cc2)c2c(sc(C)c2C)-n2c(C)nnc21 (some centres not stated),half-life,[1],8.8 h
COc1cc(CN(CCCCNC(=O)COc2cccc3c2C(=O)N(C2CCC(=O)NC2=O)C3=O)C(=O)C[C@@H]2N=C(c3ccc(Cl)cc3)c3c(sc(C)c3C)-n3c(C)nnc32)c([N+](=O)[O-])cc1OC (some centres not stated),IC50,[2],7600 nM
same,GI50,[3],400 nM
same,GI50,[4],340 nM
Cc1ncsc1-c1ccc(CNC(=O)[C@@H]2C[C@@H](O)CN2C(=O)[C@@H](NC(=O)COCC(C)(COCCOCCOCCNC(=O)C[C@@H]2N=C(c3ccc(Cl)cc3)c3c(sc(C)c3C)-n3c(C)nnc32)COCCOCCOCCNC(=O)C[C@@H]2N=C(c3ccc(Cl)cc3)c3c(sc(C)c3C)-n3c(C)nnc32)C(C)(C)C)cc1,EC50,[5],2 nM
Cc1sc2c(c1C)C(c1ccc(Cl)cc1)=N[C@@H](CC(=O)NCCOCCNC(=O)CN1CCOc3cc(N(CCC#N)C(=O)CCl)ccc31)c1nnc(C)n1-2,DC50,[6],820 nM
same,Emax,[7],81%
CCS(=O)(=O)Nc1ccc(Oc2ccc(F)cc2F)c(-c2cn(C)c(=O)c3[nH]c(C(=O)NCc4cn(CCOCC(=O)Nc5cccc6c5CN(C5CCC(=O)NC5=O)C6=O)nn4)cc23)c1 (configuration not stated),IC50,[8],170 nM
Cc1ncsc1-c1ccc([C@H](C)NC(=O)[C@@H]2C[C@@H](O)CN2C(=O)[C@@H](NC(=O)COCCCOCCNC(=O)C[C@@H]2N=C(c3ccc(Cl)cc3)c3c(sc(C)c3C)-n3c(C)nnc32)C(C)(C)C)cc1,DC50,[9],< 5 nM
same,DC50,[10],< 5 nM
same,DC50,[11],< 5 nM
same,IC50,[12],< 1 nM
same,IC50,[13],1.5 nM
same,IC50,[14],1.5 nM
same,EC50,[5],90 nM
COc1cc(/N=N/c2cccc3c2CN(C2CCC(=O)NC2=O)C3=O)cc(OC)c1OCC(=O)NCCCCNC(=O)C[C@@H]1N=C(c2ccc(Cl)cc2)c2c(sc(C)c2C)-n2c(C)nnc21 (some centres not stated),EC50,[15],88.5 nM
same,EC50,[16],610 nM
CCS(=O)(=O)Nc1ccc(Oc2ccc(F)cc2F)c(-c2cn(C)c(=O)c3[nH]ccc23)c1 [MIVEBRESIB],IC50,[8],1220 nM
Cc1sc2c(c1C)C(c1ccc(Cl)cc1)=N[C@@H](CC(=O)NCCCNC(=O)CN1CCOc3cc(N(CCC#N)C(=O)CCl)ccc31)c1nnc(C)n1-2,DC50,[6],810 nM
same,Emax,[7],71%
COC(=O)C[C@H]1[C@]2(C)C3=C(C)[C@H](c4ccoc4-c4ccc(C(=O)NCCCNC(=O)C[C@@H]5N=C(c6ccc(Cl)cc6)c6c(sc(C)c6C)-n6c(C)nnc65)cc4)C[C@H]3O[C@@H]2[C@@H]2OC(=O)[C@]3(C)C=CC(=O)[C@@]1(C)[C@@H]23,IC50,[17],240 nM
Cc1sc2c(c1C)C(c1ccc(Cl)cc1)=N[C@@H](CC(=O)NCCOCCOCCOCCN1CCOc3cc(N(CCC#N)C(=O)CCl)ccc31)c1nnc(C)n1-2,DC50,[6],3600 nM
same,Emax,[7],60%
Cc1sc2c(c1C)C(c1ccc(Cl)cc1)=N[C@@H](CC(=O)NCCCCCNc1cccc3c1CN(C1CCC(=O)NC1=O)C3=O)c1nnc(C)n1-2 (some centres not stated),DC50,[18],< 0.5 nM
same,IC50,[19],6.7 nM
same,IC50,[20],0.9 nM
same,IC50,[21],125 nM
